Target: T1, CruCA4 (Corallium rubrum, UniProt A0A1B0Y987)
T1 construct: gene CA4
Assay: stopped-flow CO2 hydrase activation assay
Type: biochemical
Details: activation constant (activator); CO2 1.7-17 mM substrate, pH 7.5, 25 °C, 15 min pre-incubation
Excerpt: stopped-flow CO2 hydrase activation assay on CruCA4

T1 sequence (A0A1B0Y987 entry or part of it): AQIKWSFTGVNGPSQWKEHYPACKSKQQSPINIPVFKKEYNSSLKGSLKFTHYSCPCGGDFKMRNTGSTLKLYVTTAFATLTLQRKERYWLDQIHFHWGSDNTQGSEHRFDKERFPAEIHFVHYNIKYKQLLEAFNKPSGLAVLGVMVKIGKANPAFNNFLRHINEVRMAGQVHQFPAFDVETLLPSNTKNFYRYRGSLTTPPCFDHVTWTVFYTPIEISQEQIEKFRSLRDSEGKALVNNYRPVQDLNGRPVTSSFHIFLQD

First: N[C@H](Cc1c[nH]cn1)C(=O)O [compound 2, D-His]
Second: N[C@@H](Cc1cnc[nH]1)C(=O)O [compound 1, L-His]
The “KA (μM) * / CruCA4 ^b” value of the first is 380-fold lower: 0.098 µM for the first, 36.9 µM for the second.

N[C@H](Cc1c[nH]c2ccccc12)C(=O)O [compound 8, D-Trp] and N[C@@H](Cc1c[nH]c2ccccc12)C(=O)O [compound 7, L-Trp] are within 1.5-fold of each other in “KA (μM) * / CruCA4 ^b” value: 8.35 µM for the first, 9.48 µM for the second.

Going from N[C@@H](Cc1ccc(O)c(O)c1)C(=O)O [compound 5, L-DOPA] to N[C@H](Cc1ccc(O)c(O)c1)C(=O)O [compound 6, D-DOPA], the “KA (μM) * / CruCA4 ^b” value falls from 13.7 µM to 0.93 µM (15-fold).

Compared with NCCN1CCOCC1 [compound 18, 4-(2-Aminoethyl)-morpholine], NCCN1CCNCC1 [compound 17, 1-(2-Aminoethyl)-piperazine] is 38-fold lower in “KA (μM) * / CruCA4 ^b” value: 0.15 µM for the first, 0.004 µM for the second.

First: N[C@H](Cc1ccccc1)C(=O)O [compound 4, D-Phe]
Second: Nc1ccc(C[C@H](N)C(=O)O)cc1 [compound 11, 4-H2N-L-Phe]
The “KA (μM) * / CruCA4 ^b” value of the first is 14-fold higher: 1.01 µM for the first, 0.074 µM for the second.

NCc1ccccn1 [compound 15, 2-Pyridyl-methylamine] was tested, and the “KA (μM) * / CruCA4 ^b” value was 0.41 µM.
